Read-outs that look alike come from different tables or passages of the source.
Experiments:
[1] = Ligand charge of maytansinoid conjugates; type: physicochemical
[2] = target: human SSTR2 (Homo sapiens, UniProt P30874); assay: Radioligand-receptor binding assay, [125I] somatostatin, membranes from SSTR2 expressing CHO-K1 cells
Method: These conjugates were also assessed in an in vitro assay evaluating binding to the somatostatin receptor 2 (SSTR2). A radioligand-receptor binding assay was conducted at Eurofins Panlabs (Taiwan) to determine the affinity of conjugates described herein to the SSTR2. The assay measures binding of radiolabeled ligand, [^125I] labeled somatostatin, to human SSTR2 using membrane preparations from SSTR2 expressing CHO-K1 cells. Membranes were incubated with radiolabeled somatostatin (0.03 nM) in the presence of conjugate/compound starting at a dose of 10 uM using 6× serial dilutions to obtain a 10-pt curve. After a four hour incubation, membranes were filtered and washed 3× and counted to determine the remaining [^125I] somatostatin bound to the receptor. IC50 values were determined by a non-linear, least squares regression analysis using MathIQ™ (ID Business Solutions Ltd., UK).

[3] = system: NCI-H524 (ATCC) human lung cancer cells; type: cell-based
Method: FIG. 1 is a graph of various conjugates represented as bars and showing on the Y-axis their activity in an H524 proliferation assay with and without competition by octreotide. […] This illustrates the suprprising finding that only maytansinoid conjugates show activity that is dependent on the receptor.
Conjugates were assessed in an in vitro assay evaluating inhibition of cell proliferation. NCI-H524 (ATCC) human lung cancer cells were plated in 96 well, V-bottomed plates (Costar) at a concentration of 5,000 cells/well and 24 hours later were treated with compound for 6 hours and further incubated 66 hours. Compound starting dose was 20 μM and three fold serial dilutions were done for a total of ten points. After 6 hours of treatment, cells were spun down, the drug containing media was removed, and fresh complete medium was added and used to resuspend the cells, which were spun again. After removal of the wash media, the cells were resuspended in complete medium, then transferred into white walled, flat bottomed 96 well plates. […] Proliferation was measured using CellTiter Glo reagent using the standard protocol (Promega) and a Glomax multi+detection system (Promega). Percent proliferation inhibition was calculated using the following formula: % inhibition=(control-treatment)/control*100. Control is defined as vehicle alone. IC50 curves were generated using the nonlinear regression analysis (four parameter) with GraphPad Prism 6.
Conjugates were tested for their activity dependence on the somatostatin receptor. Active agent Z in the conjugate was selected from auristatin, carbazitaxel, DM1, doxorubicin, platinum, SN-38 and vinblastine. Active agent Z is connected to octreotide with various linkers. Proliferation IC50 values of the conjugates were measured. Proliferation IC50 values of the conjugates without octreotide competition were also measured. The ratio of IC50 with octreotide competition and IC50 without octreotide competition is an indicator of whether activity is at least particially dependent on bind to the somatostatin receptor. […] Therefore, the activity of conjugates comprising DM1 is dependent on the binding to the somatostatin receptor.

[4] = read-out: H524 IC50 6 h, 6 hours treatment, further 66 hours incubation
[5] = read-out: H524 IC50 with 100 μM octreotide 6 h, with 100 μM octreotide competition, 6 h treatment

human SSTR2, sequence (P30874 whole entry): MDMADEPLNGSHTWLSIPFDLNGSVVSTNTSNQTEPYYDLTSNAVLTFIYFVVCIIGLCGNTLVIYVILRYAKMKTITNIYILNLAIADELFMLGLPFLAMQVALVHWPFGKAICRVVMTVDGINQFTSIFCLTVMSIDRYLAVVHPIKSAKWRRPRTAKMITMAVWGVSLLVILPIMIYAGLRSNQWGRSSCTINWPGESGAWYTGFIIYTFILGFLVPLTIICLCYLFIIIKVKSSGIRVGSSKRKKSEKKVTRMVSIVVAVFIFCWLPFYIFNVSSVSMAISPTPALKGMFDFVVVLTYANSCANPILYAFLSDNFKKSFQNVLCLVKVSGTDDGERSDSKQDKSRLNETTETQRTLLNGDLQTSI

| Compound | Ligand charge [1] | Ki [2] [nM] | IC50 [3, 4] [nM] | IC50 [3, 5] [nM] |
| --- | --- | --- | --- | --- |
| COc1cc2cc(c1Cl)N(C)C(=O)C[C@H](OC(=O)[C@H](C)N(C)C(=O)CCSSC[C@H](NC(=O)[C@@H]1CSSC[C@H](NC(=O)[C@@H](Cc3ccccc3)NC(=O)NC3CCCCC3)C(=O)N[C@@H](Cc3ccc(O)cc3)C(=O)N[C@H](Cc3c[nH]c4ccccc34)C(=O)N[C@@H](CCCCN)C(=O)N[C@@H]([C@@H](C)O)C(=O)N1)C(=O)NCc1ccccc1)[C@]1(C)O[C@H]1[C@H](C)[C@@H]1C[C@@](O)(NC(=O)O1)[C@H](OC)/C=C/C=C(\C)C2 [Conjugate 26] | +1 | 1.42 | 30 | 106 |
| COc1cc2cc(c1Cl)N(C)C(=O)C[C@H](OC(=O)[C@H](C)N(C)C(=O)CCSSC(C)(C)[C@H](NC(=O)[C@@H]1CSSC[C@H](NC(=O)[C@@H](Cc3ccccc3)NC(=O)NCc3ccc(C(F)(F)F)cc3)C(=O)N[C@@H](Cc3ccc(O)cc3)C(=O)N[C@H](Cc3c[nH]c4ccccc34)C(=O)N[C@@H](CCCCN)C(=O)N[C@@H]([C@@H](C)O)C(=O)N1)C(N)=O)[C@]1(C)O[C@H]1[C@H](C)[C@@H]1C[C@@](O)(NC(=O)O1)[C@H](OC)/C=C/C=C(\C)C2 [Conjugate 15] | +1 | 0.077 | 17 | 262 |
| COc1cc2cc(c1Cl)N(C)C(=O)C[C@H](OC(=O)[C@H](C)N(C)C(=O)CCSSC[C@@H](NC(=O)[C@@H]1CSSC[C@H](NC(=O)[C@@H](Cc3ccccc3)NC(=O)C(F)(F)F)C(=O)N[C@@H](Cc3ccc(O)cc3)C(=O)N[C@H](Cc3c[nH]c4ccccc34)C(=O)N[C@@H](CCCCN)C(=O)N[C@@H]([C@@H](C)O)C(=O)N1)C(N)=O)[C@]1(C)O[C@H]1[C@H](C)[C@@H]1C[C@@](O)(NC(=O)O1)[C@H](OC)/C=C/C=C(\C)C2 [Conjugate 32] | +1 | 0.82 | 33 | 98 |
| COc1cc2cc(c1Cl)N(C)C(=O)C[C@H](OC(=O)[C@H](C)N(C)C(=O)CCSSC(C)(C)[C@H](NC(=O)[C@@H]1CSSC[C@H](NC(=O)[C@H](N)Cc3ccccc3)C(=O)N[C@@H](Cc3ccc(O)cc3)C(=O)N[C@H](Cc3c[nH]c4ccccc34)C(=O)N[C@@H](CCCCNC(=O)[C@@H](NC(=O)[C@@H](N)C(C)C)C(C)C)C(=O)N[C@@H]([C@@H](C)O)C(=O)N1)C(N)=O)[C@]1(C)O[C@H]1[C@H](C)[C@@H]1C[C@@](O)(NC(=O)O1)[C@H](OC)/C=C/C=C(\C)C2 [Conjugate 58] | +2 | 3980 | 90 | 250 |
| COc1cc2cc(c1Cl)N(C)C(=O)C[C@H](OC(=O)[C@H](C)N(C)C(=O)CCSSC[C@H](NC(C)=O)C(=O)NC[C@H](NC(=O)[C@@H]1CSSC[C@H](NC(=O)[C@H](N)Cc3ccccc3)C(=O)N[C@@H](Cc3ccc(O)cc3)C(=O)N[C@H](Cc3c[nH]c4ccccc34)C(=O)N[C@@H](CCCCN)C(=O)N[C@@H]([C@@H](C)O)C(=O)N1)C(N)=O)[C@]1(C)O[C@H]1[C@H](C)[C@@H]1C[C@@](O)(NC(=O)O1)[C@H](OC)/C=C/C=C(\C)C2 [Conjugate 45] | +2 | 0.049 | 1.3 | 154 |
| COc1cc2cc(c1Cl)N(C)C(=O)C[C@H](OC(=O)[C@H](C)N(C)C(=O)CCSSC[C@H](NC(=O)[C@@H]1CSSC[C@H](NC(=O)[C@@H](Cc3ccccc3)NC(=O)C(F)(F)F)C(=O)N[C@@H](Cc3ccc(O)cc3)C(=O)N[C@H](Cc3c[nH]c4ccccc34)C(=O)N[C@@H](CCCCN)C(=O)N[C@@H]([C@@H](C)O)C(=O)N1)C(N)=O)[C@]1(C)O[C@H]1[C@H](C)[C@@H]1C[C@@](O)(NC(=O)O1)[C@H](OC)/C=C/C=C(\C)C2 [Conjugate 29] | +1 | 0.23 | 5.7 | 28 |
| COc1cc2cc(c1Cl)N(C)C(=O)C[C@H](OC(=O)[C@H](C)N(C)C(=O)CCC(C)(C)SSC[C@H](NC(=O)[C@@H]1CSSC[C@H](NC(=O)[C@@H](Cc3ccccc3)NC(=O)Nc3ccccc3)C(=O)N[C@@H](Cc3ccc(O)cc3)C(=O)N[C@H](Cc3c[nH]c4ccccc34)C(=O)N[C@@H](CCCCN)C(=O)N[C@@H]([C@@H](C)O)C(=O)N1)C(N)=O)[C@]1(C)O[C@H]1[C@H](C)[C@@H]1C[C@@](O)(NC(=O)O1)[C@H](OC)/C=C/C=C(\C)C2 [Conjugate 5] | +1 | 0.32 | 7.7 | 317 |
| COC(=O)N[C@H](Cc1ccccc1)C(=O)N[C@H]1CSSC[C@@H](C(=O)N[C@@H](CSSCCC(=O)N(C)[C@@H](C)C(=O)O[C@H]2CC(=O)N(C)c3cc(cc(OC)c3Cl)C/C(C)=C/C=C/[C@@H](OC)[C@@]3(O)C[C@H](OC(=O)N3)[C@@H](C)[C@@H]3O[C@@]23C)C(N)=O)NC(=O)[C@H]([C@@H](C)O)NC(=O)[C@H](CCCCN)NC(=O)[C@@H](Cc2c[nH]c3ccccc23)NC(=O)[C@H](Cc2ccc(O)cc2)NC1=O [Conjugate 35] | +1 | 0.024 | 27 | 17 |
| COc1cc2cc(c1Cl)N(C)C(=O)C[C@H](OC(=O)[C@H](C)N(C)C(=O)CCSSC[C@H](NC(=O)CC[C@H](NC(=O)[C@@H]1CSSC[C@H](NC(=O)[C@H](N)Cc3ccccc3)C(=O)N[C@@H](Cc3ccc(O)cc3)C(=O)N[C@H](Cc3c[nH]c4ccccc34)C(=O)N[C@@H](CCCCN)C(=O)N[C@@H]([C@@H](C)O)C(=O)N1)C(N)=O)C(N)=O)[C@]1(C)O[C@H]1[C@H](C)[C@@H]1C[C@@](O)(NC(=O)O1)[C@H](OC)/C=C/C=C(\C)C2 [Conjugate 46] | +2 | 0.045 | 0.3 | 195 |
| COc1cc2cc(c1Cl)N(C)C(=O)C[C@H](OC(=O)[C@H](C)N(C)C(=O)CCSSC(C)(C)[C@@H](NC(=O)[C@@H]1CSSC[C@H](NC(=O)[C@H](N)Cc3ccccc3)C(=O)N[C@@H](Cc3ccc(O)cc3)C(=O)N[C@H](Cc3c[nH]c4ccccc34)C(=O)N[C@@H](CCCCN)C(=O)N[C@@H]([C@@H](C)O)C(=O)N1)C(N)=O)[C@]1(C)O[C@H]1[C@H](C)[C@@H]1C[C@@](O)(NC(=O)O1)[C@H](OC)/C=C/C=C(\C)C2 [Conjugate 8] | +2 | 0.79 | 270 | 467 |
| COc1cc2cc(c1Cl)N(C)C(=O)C[C@H](OC(=O)[C@H](C)N(C)C(=O)CCSC1CC(=O)N(CCCNC(=O)CC[C@H](NC(=O)[C@@H]3CSSC[C@H](NC(=O)[C@H](N)Cc4ccccc4)C(=O)N[C@@H](Cc4ccc(O)cc4)C(=O)N[C@H](Cc4c[nH]c5ccccc45)C(=O)N[C@@H](CCCCN)C(=O)N[C@@H]([C@@H](C)O)C(=O)N3)C(N)=O)C1=O)[C@]1(C)O[C@H]1[C@H](C)[C@@H]1C[C@@](O)(NC(=O)O1)[C@H](OC)/C=C/C=C(\C)C2 (stereo partly shown) [Conjugate 48] | +2 | 0.21 | 9 | 157 |
| COc1cc2cc(c1Cl)N(C)C(=O)C[C@H](OC(=O)[C@H](C)N(C)C(=O)CCSSC[C@H](NC(=O)[C@@H]1CSSC[C@H](NC(=O)[C@@H](Cc3ccccc3)NCc3ccccc3)C(=O)N[C@@H](Cc3ccc(O)cc3)C(=O)N[C@H](Cc3c[nH]c4ccccc34)C(=O)N[C@@H](CCCCN)C(=O)N[C@@H]([C@@H](C)O)C(=O)N1)C(N)=O)[C@]1(C)O[C@H]1[C@H](C)[C@@H]1C[C@@](O)(NC(=O)O1)[C@H](OC)/C=C/C=C(\C)C2 [Conjugate 43] | +2 | 0.075 | 7.2 | 20 |
| COc1cc2cc(c1Cl)N(C)C(=O)C[C@H](OC(=O)[C@H](C)N(C)C(=O)CCSSC[C@H](NC(=O)[C@@H]1CSSC[C@H](NC(=O)[C@@H](Cc3ccccc3)NC(C)=O)C(=O)N[C@@H](Cc3ccc(O)cc3)C(=O)N[C@H](Cc3c[nH]c4ccccc34)C(=O)N[C@@H](CCCCN)C(=O)N[C@@H]([C@@H](C)O)C(=O)N1)C(N)=O)[C@]1(C)O[C@H]1[C@H](C)[C@@H]1C[C@@](O)(NC(=O)O1)[C@H](OC)/C=C/C=C(\C)C2 [Conjugate 27] | +1 | 0.15 | 17 | 49 |

From patent US20190125888A1, “TARGETED CONJUGATES AND PARTICLES AND FORMULATIONS THEREOF” (priority 2015, published 2019)
